In publication PMC12067444, “Synthesis and Pharmacological Characterization of Novel Peripheral Cannabinoid-1 Receptor Blockers Based on a Tricyclic Scaffold” (Journal of Medicinal Chemistry, 2025):
Read-outs that look alike come from different tables or passages of the source.

What was measured:
[1] = target: T1, human CB1R (Homo sapiens, UniProt P21554); assay: Radioligand competition displacement binding, [3H]CP-55,940, membranes with human CB1R
T1 construct: purchased PerkinElmer RBHCB1M400UA
T1 sequence (P21554 whole entry): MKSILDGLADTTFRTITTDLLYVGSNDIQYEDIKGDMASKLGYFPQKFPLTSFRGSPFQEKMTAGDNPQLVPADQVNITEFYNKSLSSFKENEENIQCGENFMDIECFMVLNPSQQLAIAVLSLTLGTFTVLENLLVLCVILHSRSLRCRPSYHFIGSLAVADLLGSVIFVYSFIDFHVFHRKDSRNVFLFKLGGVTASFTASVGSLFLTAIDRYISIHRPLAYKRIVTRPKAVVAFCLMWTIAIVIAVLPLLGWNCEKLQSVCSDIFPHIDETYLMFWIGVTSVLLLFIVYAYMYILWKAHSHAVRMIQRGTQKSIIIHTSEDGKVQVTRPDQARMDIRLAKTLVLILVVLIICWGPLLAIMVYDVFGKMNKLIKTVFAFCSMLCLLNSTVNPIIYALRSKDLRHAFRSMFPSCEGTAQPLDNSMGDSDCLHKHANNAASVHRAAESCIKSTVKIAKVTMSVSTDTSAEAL
Method: BNS compounds’ binding to CB1R and CB2R was assessed in competition displacement assays using [^3H]CP-55,940 as the radioligand and crude membranes from mouse brain or human cells overexpressing the CB1R or CB2R. All data were in triplicates with Ki values determined from three independent experiments. See SI for a detailed procedure. […]
Radioligand binding assays were performed to asse ss the binding affinity of the different compounds to hCB1R (RBHCB1M4 00UA; Per kinElmer) or hCB 2R
(RBXCB2 M400UA; PerkinElmer). Competition displacement as says w ere employed, […]
utilizing [3H] C P -55,940 as the radioligand and crude membranes from humans for CB1 R or CB2 R. T he compounds were tested at various concentrations (eight points with a five-fold serial dilution starting at two m M) , and their ability to displace [3H] CP - 55, 940 was evaluated. Upon completion of the binding assays, the reaction mixture was filtered through GF/C plates, followed by four washes with cold wash buffer. After drying for one hour, 50 μL of Perkin Elmer Microscint 20 cocktail was added to the filter plate wells, and the bound [3H] C P -55,940 radioligand was measured using a β counter. All data points were duplicated, and Ki values were determined from two independent experiments using GraphPad Prism 7.02 analysis software, extracted through nonlinear regression analysis. […]

[2] = tested on: HepG2 cells; assay: Cell viability assay (CellTiter Glo); assay type: cell-based; settings: 72 h; for IC50: Homo sapiens
Method: Cell viability assay. To assess the cell viability, which indicates the toxicity of the novel compounds, a total of 3,000 HepG2 cells were seeded into a 384-well plate. The compounds were then dispensed onto the cell plate using a Tecan D300e digital dispenser. Following compound addition, 35 μL CellTiter Glo reagent was added to all wells of the assay plate, and the plate was mixed for 30 sec on an or bital shaker to lyse cells. Subsequently, the plate was incubated at room temperature for 10 minutes. The luminescence signal was measured using a 384-well plate reader (EnVision). The obtained data were analyzed using XL-fit software (ID Business Solutions Ltd., Software version: XL fit 5. 5. 0. 5). The percentage of inhibition was calculated using the […]
Inhibition (%) = (1-Sample / ZPE) ×100
Sample represents the test compound's luminesc e nce signal, and ZPE represents the luminescence signal f r om the zer o-percent enzyme control.

[3] = Stability in simulated gastric fluid (SGF); assay type: in vitro ADME
[4] = target: P-gp (MDR1-MDCKII cells) (Homo sapiens, UniProt P08183); assay: Bidirectional permeability in MDR1-MDCKII cells with and without GF120918; settings: for P-gp substrate: MDR1-MDCKII cells; for Rank Papp: MDR1-MDCKII permeability rank
Chain of P-gp (MDR1-MDCKII cells) (P08183 whole entry): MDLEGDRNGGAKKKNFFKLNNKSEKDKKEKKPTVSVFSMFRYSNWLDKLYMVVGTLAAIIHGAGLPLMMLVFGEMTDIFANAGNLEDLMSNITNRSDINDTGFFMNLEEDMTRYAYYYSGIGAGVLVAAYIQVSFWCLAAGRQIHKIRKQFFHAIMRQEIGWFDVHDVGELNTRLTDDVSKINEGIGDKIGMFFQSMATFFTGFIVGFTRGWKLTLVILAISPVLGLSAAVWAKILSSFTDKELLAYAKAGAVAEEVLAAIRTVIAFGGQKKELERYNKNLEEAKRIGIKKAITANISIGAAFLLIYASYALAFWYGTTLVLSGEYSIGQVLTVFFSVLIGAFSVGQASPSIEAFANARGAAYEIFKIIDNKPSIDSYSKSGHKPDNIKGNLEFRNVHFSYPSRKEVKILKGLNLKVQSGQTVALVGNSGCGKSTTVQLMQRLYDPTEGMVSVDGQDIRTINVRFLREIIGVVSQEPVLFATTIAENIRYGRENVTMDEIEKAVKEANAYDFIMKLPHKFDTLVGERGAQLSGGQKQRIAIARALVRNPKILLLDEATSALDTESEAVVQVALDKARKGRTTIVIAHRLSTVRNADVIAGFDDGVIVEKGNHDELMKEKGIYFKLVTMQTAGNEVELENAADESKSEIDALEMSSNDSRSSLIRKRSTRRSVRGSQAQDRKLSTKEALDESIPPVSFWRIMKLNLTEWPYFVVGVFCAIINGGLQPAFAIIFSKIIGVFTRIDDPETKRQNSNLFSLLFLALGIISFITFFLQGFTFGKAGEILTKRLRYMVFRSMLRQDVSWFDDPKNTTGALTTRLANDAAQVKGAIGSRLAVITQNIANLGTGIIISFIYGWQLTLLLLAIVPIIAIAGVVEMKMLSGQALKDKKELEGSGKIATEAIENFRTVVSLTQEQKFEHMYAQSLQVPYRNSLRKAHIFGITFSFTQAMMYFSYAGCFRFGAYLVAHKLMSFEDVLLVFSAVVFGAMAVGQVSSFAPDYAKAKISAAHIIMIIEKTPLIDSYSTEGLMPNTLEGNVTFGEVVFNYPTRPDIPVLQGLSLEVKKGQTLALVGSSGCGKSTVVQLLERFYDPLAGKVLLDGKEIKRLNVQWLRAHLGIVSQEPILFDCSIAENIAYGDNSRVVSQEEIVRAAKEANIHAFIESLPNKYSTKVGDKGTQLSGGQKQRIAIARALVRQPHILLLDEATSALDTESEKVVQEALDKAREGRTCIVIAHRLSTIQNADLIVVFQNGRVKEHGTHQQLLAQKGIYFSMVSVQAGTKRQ
Method: (§1) MDR1-MDCKII cells were seeded onto […] (PET) in a 96-well insert system. Test and reference compounds were administered to the apical (A-to-B) and basolateral (B-to-A) sides of the cell monolayer. Permeation of the compounds in both directions was assessed, with and without a P-glycoprotein (P-gp) inhibitor (GF120918). […] After a 2.5-h incubation period, each compound’s permeability and efflux ratio were calculated as described in the SI. […]
(§2) Bidirectional permeability assessment in MDR1-MDCK cells. Test and reference compounds were quantified using LC -MS/MS ana lysis based on th e peak ar ea r atio of analyte to internal standard (IS). T he apparent permeability coefficient (Papp) in cm/s was computed using the equation: Pa pp = (dCr/d t ) × V r / ( A × C 0), where dCr/ d t […]
(§3) represents the cumulative concentration of the compound in the receiver chamber over time (µM/s), Vr is the solution volume in the receiver chamber (0.075 mL on the apical side, 0.25 mL on the basolateral side), A is the surface area for transport (0.0804 cm2 f or the monolayer ar ea), and C0 is the initial concentration in the donor chamber ( µM) .
(§4) The efflux ratio was determined using the equation Efflux Ratio = P a pp ( B:
(§5) A ) / Pa pp (A: B) . […]
(§6) Additionally, the percent of lucifer yellow in the basolateral well was calculated using the equation:
(§7) Lucif er yellow = VV bbbbbbbbbbbbbbbbbbbb ×RR FFFF bbbbbbbbbbbbbbbbbbbb ×100 VV bbaaaaaa bbbb ×RRRRRR bbaaaaaa bbbb+VV bbbbbbbbbbbbbbbbbbbb ×RRFFFF bbbbbbbbbbbbbbbbbbbb wher e RFUApical and RFUBasolateral demote the r elative f luor escence unit values of lucif er yellow in the apical and basolateral wells, respectively, and VApical and VBasolateral represent the volumes of apical and basolateral wells (0.075 mL and 0.25 mL, r espectively) . T he % Lucif er Yellow should be less than 2, indicating minimal leakage. […]

[5] = target: P-gp (MDR1) (Homo sapiens, UniProt P08183); assay: as above; settings: dog; for Papp A→B at 2.5 h / Papp B→A at 2.5 h / efflux ratio at 2.5 h: MDCK-MDR1
Chain of P-gp (MDR1) (P08183 whole entry): as above
Method: as §1, §2, §3, §4, §5, §6, §7

[6] = human CB1R, read-out: CB1R hIC50
[7] = read-out: cell viability Absolute IC50
[8] = read-out: cell viability relative IC50
[9] = MDCK-MDR1, Mean recovery % A to B, without GF120918
[10] = MDCK-MDR1, Mean recovery % B to A, without GF120918

IC50 [1, 6] [µM] | IC50 [2, 7] [µM] | IC50 [2, 8] [µM] | SMILES | Bottom (%) of cell viability inhibition curve [2] [%] | Slope of cell viability inhibition curve [2] | Top (%) of cell viability inhibition curve [2] [%] | P-gp substrate [4] | Rank Papp [4] | Papp A→B at 2.5 h [5] [×10⁻⁶ cm/s] | Papp B→A at 2.5 h [5] [×10⁻⁶ cm/s] | efflux ratio at 2.5 h [5] | recovery at 2.5 h [5, 9] [%] | recovery at 2.5 h [5, 10] [%] | also measured
0.0015 | > 100 | 17.9 | Cc1ccc(S(=O)(=O)NC2CCCOc3c2nn(-c2ccccc2Cl)c3-c2ccc(Cl)cc2)cc1 (stereo not drawn) [BNS807] | -12.17 | 1.52 | 21.39 | – | – | – | – | – | – | – | –
0.0101 | 55.9 | 46.7 | CS(=O)(=O)N1CCC(C(=O)NC2CCCOc3c2nn(-c2ccccc2Cl)c3-c2ccc(Cl)cc2)CC1 (stereo not drawn) [BNS815, N-[2-(2-Chlorophenyl)-3-(4-chlorophenyl)-5,6,7,8-tetrahydrooxepino[3,2-c]pyrazol-8-yl]-1-methylsulfonyl-piperidine-4-carboxamide] | -9.25 | 3.71 | 80.41 | yes | Hi gh | 10.1 | 18.9 | 1.87 | 75.2 | 76.1 | Ki ([1]; [3H]CP-55,940 displacement, human CB1R membranes, read-out: CB1R hKi): 0.00909 µM; recovery at 2.5 h ([5]; MDCK-MDR1, with GF120918 (concentration not stated), Mean recovery % A to B, with GF120918): 63.8%; recovery at 2.5 h ([5]; MDCK-MDR1, with GF120918 (concentration not stated), Mean recovery % B to A, with GF120918): 77.6%

SMILES | IC50 [1, 6] [µM] | IC50 [2, 7] [µM] | IC50 [2, 8] [µM] | Bottom (%) of cell viability inhibition curve [2] [%] | Slope of cell viability inhibition curve [2] | Top (%) of cell viability inhibition curve [2] [%] | P-gp substrate [4] | Rank Papp [4] | Papp A→B at 2.5 h [5] [×10⁻⁶ cm/s] | Papp B→A at 2.5 h [5] [×10⁻⁶ cm/s] | efflux ratio at 2.5 h [5] | recovery at 2.5 h [5, 9] [%] | recovery at 2.5 h [5, 10] [%] | also measured
O=S(=O)(NC1CCCOc2c1nn(-c1ccccc1Cl)c2-c1ccc(Cl)cc1)c1ccc(Cl)cc1 (stereo not drawn) [BNS808, 4-chloro-N-[2-(2-chlorophenyl)-3-(4-chlorophenyl)-5,6,7,8-tetrahydrooxepino[3,2-c]pyrazol-8-yl]benzenesulfonamide] | – | 26.2 | 16.8 | -8.11 | 3.39 | 62.98 | P-gp substrate and P-gp substrates and yes | Low | 0.26 | 1.01 | 3.95 | 7.9 | 15.3 | IC50 [1]: 0.0008 µM; amount in SGF with pepsin ([3]; 0 h): 2.753 mg; amount in SGF, no pepsin ([3]; 0 h): 2.826 mg; Initial amount (%) in SGF with pepsin ([3]; 1 h): 98%; Initial amount (%) in SGF, no pepsin ([3]; 1 h): 102%; amount in SGF with pepsin ([3]; 1 h): 2.69 mg; stability in SGF and SIF ([3]; summary column covering SGF and SIF): stable; Stability in SGF ([3]; with and without pepsin): Stable; Papp A:B ([4]; A to B, without GF120918): 0.26 ×10^–6 cm/s; recovery at 2.5 h ([5]; MDCK-MDR1, Mean recovery % A to B, with GF120918): 7.87%; recovery at 2.5 h ([5]; MDCK-MDR1, Mean recovery % B to A, with GF120918): 23.4%
